US8901072B2, “Glycopeptide and lipoglycopeptide antibiotics with improved solubility” (The Medicines Company, priority 2009, dated 2014)
≈ marks a conversion by molar mass, not a printed value.

Key:
[1] = Solubility in phosphate buffered saline; format: physicochemical; conditions: pH 7.4
Protocol: To a sample of the material of known mass were added known volumes of phosphate buffered saline until complete dissolution is observed. Suspensions were centrifuged for 5 min at 10000 rpm. […] Upon complete dissolution, the solution is diluted until the final concentration is 0.5 mg/mL to ensure that the material remains soluble over the entire range of concentrations.

[2] = tested on: S. aureus ATCC 13709; assay: In vitro antibacterial susceptibility (MIC, broth microdilution); format: cell-based; conditions: for MIC against S. aureus ATCC 13709, CAMHB: cation-adjusted Mueller-Hinton broth, 37° C., 18 h; for Antibacterial activity compared with oritavancin 5: deduced from the MIC data of Table 2
Protocol: Susceptibility of S. aureus strain ATCC13709 to oritavancin (5) and synthesized compounds was determined following the guidelines set by the Clinical and Laboratory Standards Institute (formerly the National Committee for Clinical Laboratory Standards) (M26-A). Compounds were serially diluted two-fold in either DMSO (Oritavancin 5) or in PBS and transferred to cation-adjusted Mueller Hinton broth (CAMHB; Becton Dickinson). 50 μL of compounds diluted in CAMHB was mixed with 100 μL of bacteria diluted in CAMHB in 96-well microtiter plates. The final number of micro-organisms in the assay was 5×10^5 c.f.u. per mL and the final concentration of DMSO in the assay, if present, was 1.25%. All solutions may contain 0.002% Tween as indicated. Assays were set up in duplicate and incubated at 37° C. for 18 h. The concentration of compound that inhibited visible growth was reported as the minimum inhibitory concentration (MIC).

[3] = 10 mM phosphate buffered saline (0.138 M NaCl, 2.7 mM KCl)

SMILES	Solubility (mg/mL) PBS [1] [mg/mL]	Solubility (mg/mL) PBS [1, 3]	MIC against S. aureus ATCC 13709, CAMHB + 0.002% tween [2] [µg/mL]	MIC against S. aureus ATCC 13709, CAMHB + 50% human serum [2] [µg/mL]	MIC against S. aureus ATCC 13709, CAMHB + 50% mouse serum [2] [µg/mL]	MIC against S. aureus ATCC 13709, CAMHB + 50% rat serum [2] [µg/mL]	MIC against S. aureus ATCC 13709, CAMHB [2] [µg/mL]	Antibacterial activity compared with oritavancin 5 [2]
CC(=O)[O-].CNC(CC(C)C)C(=O)NC1C(=O)NC(CC(N)=O)C(=O)NC2C(=O)NC3C(=O)NC(C(=O)NC(C(=O)SCC[N+](C)(C)C)c4cc(O)cc(O)c4-c4cc3ccc4O)C(OC3CC(C)(N)C(O)C(C)O3)c3ccc(c(Cl)c3)Oc3cc2cc(c3OC2OC(CO)C(O)C(O)C2OC2CC(C)(NCc3ccc(-c4ccc(Cl)cc4)cc3)C(O)C(C)O2)Oc2ccc(cc2Cl)C1O (stereo not drawn) [98 (acetate salt)]	20	–	–	–	–	–	–	–
CC(C)CC(C(=O)NC1C(=O)NC(CC(N)=O)C(=O)NC2C(=O)NC3C(=O)NC(C(=O)NC(C(=O)O)c4cc(O)cc(O)c4-c4cc3ccc4O)C(OC3CC(C)(N)C(O)C(C)O3)c3ccc(c(Cl)c3)Oc3cc2cc(c3OC2OC(CO)C(O)C(O)C2OC2CC(C)(NCc3ccc(-c4ccc(Cl)cc4)cc3)C(O)C(C)O2)Oc2ccc(cc2Cl)C1O)N(C)C(=O)OCOC(=O)CCC(=O)O (stereo not drawn) [Compound 7]	–	<0.5 mg/mL	0.125	0.5	0.5	0.25	2 (≈ 1.02 µM)	within an order of magnitude of that of oritavancin 5
CC(C)CC(C(=O)NC1C(=O)NC(CC(N)=O)C(=O)NC2C(=O)NC3C(=O)NC(C(=O)NC(C(=O)O)c4cc(O)cc(O)c4-c4cc3ccc4O)C(OC3CC(C)(N)C(O)C(C)O3)c3ccc(c(Cl)c3)Oc3cc2cc(c3OC2OC(CO)C(O)C(O)C2OC2CC(C)(NCc3ccc(-c4ccc(Cl)cc4)cc3)C(O)C(C)O2)Oc2ccc(cc2Cl)C1O)N(C)C(=O)CCC(=O)N(CC(=O)O)CC(=O)O (stereo not drawn) [Compound 13]	–	5.5 mg/mL (≈ 2740 µM)	2	64	64	32	4 (≈ 1.99 µM)	weaker activities
CC(C)CC(C(=O)NC1C(=O)NC(CC(N)=O)C(=O)NC2C(=O)NC3C(=O)NC(C(=O)NC(C(=O)O)c4cc(O)cc(O)c4-c4cc3ccc4O)C(OC3CC(C)(N)C(O)C(C)O3)c3ccc(c(Cl)c3)Oc3cc2cc(c3OC2OC(CO)C(O)C(O)C2OC2CC(C)(NCc3ccc(-c4ccc(Cl)cc4)cc3)C(O)C(C)O2)Oc2ccc(cc2Cl)C1O)N(C)C(=O)OCOC(=O)CCC(=O)N(CC(=O)O)CC(=O)O (stereo not drawn) [Compound 20]	–	5.5 mg/mL (≈ 2640 µM)	4	16	16	2	4 (≈ 1.92 µM)	weaker activities
CNC(CC(C)C)C(=O)NC1C(=O)NC(CC(N)=O)C(=O)NC2C(=O)NC3C(=O)NC(C(=O)NC(C(=O)NCCCNCCCCNCCCN)c4cc(O)cc(O)c4-c4cc3ccc4O)C(OC3CC(C)(N)C(O)C(C)O3)c3ccc(c(Cl)c3)Oc3cc2cc(c3OC2OC(CO)C(O)C(O)C2OC2CC(C)(NCc3ccc(-c4ccc(Cl)cc4)cc3)C(O)C(C)O2)Oc2ccc(cc2Cl)C1O (stereo not drawn) [Compound 24]	–	≧100 mg/mL	0.5	1	0.06	0.06	1 (≈ 0.506 µM)	within an order of magnitude of that of oritavancin 5
CNC(CC(C)C)C(=O)NC1C(=O)NC(CC(N)=O)C(=O)NC2C(=O)NC3C(=O)NC(C(=O)NC(C(=O)OCC(=O)NCCCNCCCCNCCCN)c4cc(O)cc(O)c4-c4cc3ccc4O)C(OC3CC(C)(N)C(O)C(C)O3)c3ccc(c(Cl)c3)Oc3cc2cc(c3OC2OC(CO)C(O)C(O)C2OC2CC(C)(NCc3ccc(-c4ccc(Cl)cc4)cc3)C(O)C(C)O2)Oc2ccc(cc2Cl)C1O (stereo not drawn) [Compound 28]	–	≧100 mg/mL	0.125	0.25	0.25	0.063	2 (≈ 0.983 µM)	within an order of magnitude of that of oritavancin 5
CC(C)CC(C(=O)NC1C(=O)NC(CC(N)=O)C(=O)NC2C(=O)NC3C(=O)NC(C(=O)NC(C(=O)O)c4cc(O)cc(O)c4-c4cc3ccc4O)C(OC3CC(C)(N)C(O)C(C)O3)c3ccc(c(Cl)c3)Oc3cc2cc(c3OC2OC(CO)C(O)C(O)C2OC2CC(C)(NCc3ccc(-c4ccc(Cl)cc4)cc3)C(O)C(C)O2)Oc2ccc(cc2Cl)C1O)N(C)C(=O)CNCCCNCCCCNCCCN (stereo not drawn) [Compound 36]	–	–	0.06	0.125	0.25	0.125	1 (≈ 0.491 µM)	–
CC(C)CC(C(=O)NC1C(=O)NC(CC(N)=O)C(=O)NC2C(=O)NC3C(=O)NC(C(=O)NC(C(=O)O)c4cc(O)cc(O)c4-c4cc3ccc4O)C(OC3CC(C)(N)C(O)C(C)O3)c3ccc(c(Cl)c3)Oc3cc2cc(c3OC2OC(CO)C(O)C(O)C2OC2CC(C)(NCc3ccc(-c4ccc(Cl)cc4)cc3)C(O)C(C)O2)Oc2ccc(cc2Cl)C1O)N(C)C(=O)OCOC(=O)CNCCCNCCCCNCCCN (stereo not drawn) [Compound 38]	–	<0.5 mg/mL	0.25	1	1	0.5	2 (≈ 0.948 µM)	within an order of magnitude of that of oritavancin 5
CC(C)CC(C(=O)NC1C(=O)NC(CC(N)=O)C(=O)NC2C(=O)NC3C(=O)NC(C(=O)NC(C(=O)O)c4cc(O)cc(O)c4-c4cc3ccc4O)C(OC3CC(C)(N)C(O)C(C)O3)c3ccc(c(Cl)c3)Oc3cc2cc(c3OC2OC(CO)C(O)C(O)C2OC2CC(C)(NCc3ccc(-c4ccc(Cl)cc4)cc3)C(O)C(C)O2)Oc2ccc(cc2Cl)C1O)N(C)C(=O)OCOC(=O)C(N)CCCCN (stereo not drawn) [Compound 44]	–	<0.5 mg/mL	0.5	4	0.25	0.5	4 (≈ 2 µM)	within an order of magnitude of that of oritavancin 5
CC(C)CC(C(=O)NC1C(=O)NC(CC(N)=O)C(=O)NC2C(=O)NC3C(=O)NC(C(=O)NC(C(=O)O)c4cc(O)cc(O)c4-c4cc3ccc4O)C(OC3CC(C)(NC(=O)OCOC(=O)C(N)CCCCN)C(O)C(C)O3)c3ccc(c(Cl)c3)Oc3cc2cc(c3OC2OC(CO)C(O)C(O)C2OC2CC(C)(NCc3ccc(-c4ccc(Cl)cc4)cc3)C(O)C(C)O2)Oc2ccc(cc2Cl)C1O)N(C)C(=O)OCOC(=O)C(N)CCCCN (stereo not drawn) [Compound 46]	–	<0.5 mg/mL	0.25	0.5	1	0.25	1 (≈ 0.455 µM)	within an order of magnitude of that of oritavancin 5
CC(C)CC(C(=O)NC1C(=O)NC(CC(N)=O)C(=O)NC2C(=O)NC3C(=O)NC(C(=O)NC(C(=O)O)c4cc(O)cc(O)c4-c4cc3ccc4O)C(OC3CC(C)(N)C(O)C(C)O3)c3ccc(c(Cl)c3)Oc3cc2cc(c3OC2OC(CO)C(O)C(O)C2OC2CC(C)(NCc3ccc(-c4ccc(Cl)cc4)cc3)C(O)C(C)O2)Oc2ccc(cc2Cl)C1O)N(C)C(=O)OCOC(=O)C(CCCCN)NC(=O)C(N)CCCCN (stereo not drawn) [Compound 56]	–	>5 mg/mL	0.5	4	0.5	0.25	2 (≈ 0.942 µM)	within an order of magnitude of that of oritavancin 5
CNC(CC(C)C)C(=O)NC1C(=O)NC(CC(N)=O)C(=O)NC2C(=O)NC3C(=O)NC(C(=O)NC(C(=O)SCC[N+](C)(C)C)c4cc(O)cc(O)c4-c4cc3ccc4O)C(OC3CC(C)(N)C(O)C(C)O3)c3ccc(c(Cl)c3)Oc3cc2cc(c3OC2OC(CO)C(O)C(O)C2OC2CC(C)(NCc3ccc(-c4ccc(Cl)cc4)cc3)C(O)C(C)O2)Oc2ccc(cc2Cl)C1O (stereo not drawn) [Compound 98]	–	–	0.25	0.25	2	0.125	1	within an order of magnitude of that of oritavancin 5
